Experimental data reported in patent US20160228444A1, “NUCLEOSIDE ANALOGS AND USES THEREOF” (Ramot at Tel-Aviv University Ltd., priority 2015, published 2016).
Like-named read-outs stand apart in the source and are kept apart here. One block for each compound: values may come before it.

Key:
[1] = tested on: MDA-231 cells; assay: Median-effect drug interaction, Hoechst viability, 72 h; assay type: cell-based, human; settings: for IC50: Homo sapiens
Protocol: (§1) The ratios of the drug combination were based on the ratio of their IC50 of each drug alone. Cell viability was determined by MTT assay, as described hereinabove. The drugs were added to the cells and incubated for 72 h.
(§2) Drug interaction in adherent cells was evaluated as above except that the viability was determined by Hoechst assay.

[2] = tested on: T47D cells; assay: as above; assay type: cell-based, human; settings: for IC50: Homo sapiens
Protocol: as §1, §2

[3] = tested on: U251 cells; assay: Hoechst viability assay 72 h / median-effect combination study; settings: Homo sapiens, U-251, 72 h, read-out: IC50 value for viability in U251 cells after 72 hours
Protocol: Hoechst assay: 22RV-1, MCF-7, MCF-7DX, 4T1, U251, and T47D cells (3×10^3 cells/well) and NCI-N87 (8×10^3 cells/well) were seeded in tissue culture in growth medium for 24 h in 96-well plates (in triplicate) and then exposed to different concentrations (titration) of the tested drug for 72 h at 37° C. The plates were then rinsed with PBS and fixed with 100 ml of 70% ethanol for 30 min. […] The fluorescence was measured (excitation at 390 nm and emission at 460 nm) with a Synergy III Fluorometer-Elisa reader (BioTek Instruments, Inc. Germany).
The Median Effect Analysis (MEA) for a constant combination ratio was used for drugs interaction and the combination index (CI) determination.
The average values of three independent experiments were calculated and analyzed with CalcuSyn software.

[4] = tested on: HO-1; assay: HO-1 protein and mRNA in tumor and heart of xenograft mice (Western blot, qRT-PCR); assay type: in vivo; settings: heart
Protocol: (§3) Tumors and hearts of the mice were rapidly removed, frozen on dry ice and kept at −70° C. Tissue was then homogenized and RNA and proteins extracted using the NucleoSpin® RNA/Protein kit according to the manufacturer's protocol (Macherey-Nagel, GmbH & Co KG).
(§4) Total RNA ([…]) was primed by oligo dT and reverse-transcribed by Verso cDNA kit according to the manufacturer's protocol (Thermo Scientific). Analyses of qPCR were performed with Kapa Sybr® Fast (Kapa Biosystems) on a Step One Plus thermocycler (Applied Biosystems). The comparative threshold method was used to calculate the relative gene expression. Values were normalized against glyceraldehyde 3-phosphate dehydrogenase (GAPDH). Expression of the GAPDH mRNA in each individual sample was used to normalize the dataset. The sequences of the primers were as follows: […]
(§5) Protein levels in the samples were determined with the BCA protein assay kit (Pierce). The samples were subjected to Western blot analyses. The expression of proteins was visualized using their specified primary antibodies followed by the secondary IgG IRDye® 680DX antibody. Each detected band was quantified using the Odyssey Infrared Imaging System (LI-COR Biosciences) and normalized to the level of actin. The fold increase of a specific protein was determined by the ratio of the band intensity obtained from treated and untreated samples.
The effect of the drugs on the expression of genes associated with cell survival and death was examined by following changes in transcription and protein expression in tissue samples taken from the mice with glioblastoma xenografts. Heme oxygenase (HO-1) is known to play a protective role in the heart, whereas, in many cancers it is expressed and promotes growth and survival of neoplastic cells.

[5] = tested on: bFGF; assay: bFGF protein and mRNA in tumor and heart of xenograft mice (Western blot, qRT-PCR); assay type: in vivo; settings: for expression of mouse bFGF protein in the heart: FIG. 4D; for expression of bFGF in tumors / bFGF mRNA in the tumor: tumor; for bFGF mRNA in the tumor: FIG. 6
Protocol: as §3, §4, §5
(§6) The pro-angiogenic factors basic fibroblast growth factor (bFGF) and vascular endothelial growth factor (VEGF) are potent angiogenic stimulators. The expression of bFGF in the tumor and in the heart was evaluated by Western blot and qRT-PCR analyses and expression of VEGF by IHC.

[6] = tested on: VEGF; assay: VEGF immunohistochemistry in tumor and heart of xenograft mice; assay type: in vivo; settings: FIG. 4F
Protocol: as §6

[7] = tested on: c-Myc; assay: c-Myc and p-c-Myc (Thr 58) Western blot in tumor and heart of xenograft mice; assay type: in vivo
Protocol: as §5
The c-Myc protein is an important regulator of normal cell physiology and in tumor cells it plays an important role in activating oncogenic pathways [Soucek & Evan, Curr Opin Genet Dev 2010, 20:91-95].

[8] = tested on: U251 human glioblastoma xenograft; assay: Glioblastoma xenograft model (survival, body weight, tumor volume, tumor weight, Ki-67); settings: for tumor volume of vehicle-treated group relative to treated group: from day 11, FIG. 3C
Protocol: Xenograft of glioblastoma: 8- to 10-week-old male Hsd athymic FOXN (Harlan, Jerusalem, Israel) were inoculated sc in the flanks with 5×10^6 U251 cells. Tumor length (L) and width (W) were measured with a caliper twice weekly. Tumor volumes were calculated according to the formula: (L×W2)/2. When the tumor was established (volume of 50-100 mm^3) the mice were randomly divided into six groups treated with: vehicle control (saline); ip Dox 4 mg/kg once weekly; po AN446 25 mg/kg thrice a week; po AN7 50 mg/kg thrice a week; combination of AN446+Dox (4 mg/kg ip Dox once a week and 25 mg/kg po AN446 thrice a week); AN7+Dox (4 mg/kg ip Dox once a week and 50 mg/kg po AN7 thrice weekly). Untreated, non-bearing tumor naive mice were maintained under the same conditions. The experiment was terminated after 25 treatment days, the mice were sacrificed under CO2 and their tumors and hearts were removed, weighed and divided into parts dedicated for immunohistochemistry (IHC) and the rest were frozen (−80° C.) for Western blot and Quantitative PCR (qRT-PCR) analyses.
Inactivation of avidin-biotin nonspecific binding was prevented by a blocking kit, according to the manufacturer's protocol (Vector Laboratories). […] The secondary antibody was biotin conjugated goat anti-rabbit or anti-mouse IgG. Slides were then stained with the ABC peroxidase system, developed with diaminobenzidine (DAB) (Vector Laboratories) and counterstained with hematoxylin (Bio-Optica, Milano, Italy). The slides were examined using an Olympus BX 52 light microscope, and images were taken with an Olympus DP50 digital camera system.
Mice were implanted subcutaneously with U251 cells and when the tumors reached 50-100 mm^3 treatments were initiated. Survival was evaluated by the Kaplan-Meier end-product analysis, where treatment failure (the experimental end points) was a loss of ˜20% body weight, or a tumor volume of >1 cm^3.

[9] = tested on: TLR4; assay: TLR4 gene expression in MDA-MB-231 cells (qRT-PCR); assay type: cell-based, human; settings: single agent, FIG. 7C
Protocol: (§7) The effect of AN446 on inflammation-associated pathways was evaluated in the monocytic THP1 cell line and in the MDA-MB-231 breast carcinoma cell line. Supernatants of treated THP1 cells were collected and IL-6, IL-10 and TNF-α concentrations were quantified by ELISA (R&D systems). TLR4 expression in THP1 cells was assessed using fluorescent anti-TLR4 antibodies and FACS analysis. In addition, gene expression for MCP-1, TNF-α and TLR4 in MDA-MB-231 was evaluated by qRT-PCT, following treatment with AN446 and/or paclitaxel.

[10] = tested on: MCP-1; assay: MCP-1 gene expression in MDA-MB-231 cells (qRT-PCR); assay type: cell-based, human; settings: single agent, FIG. 7C
Protocol: as §7

[11] = tested on: TNF-α; assay: TNF-α gene expression in MDA-MB-231 cells (qRT-PCR); assay type: cell-based, human; settings: single agent, FIG. 7C
Protocol: as §7

[12] = tested on: NCI-N87 gastric carcinoma cells; assay: Median-effect drug interaction, Hoechst viability, 72 h; assay type: cell-based, human; settings: Homo sapiens
Protocol: as §1, §2

[13] = tested on: TLR4; settings: 24 hours, concentrations based on the IC50, FIG. 15

Structure (SMILES): CCCC(=O)OCOP(=O)(OCC)OCC [AN7, butyroxymethyl diethylphosphate]
HO-1 expression in the heart ([4]; co-treatment with Dox): increased the expression of this enzyme to a significantly higher level
HO-1 mRNA in the heart, elevation of basal expression level ([4]; co-treatment with Dox): 1.76±0.36 fold
HO-1 expression in the heart (decrease) ([4]; single agent, FIGS. 4D, 4E): did not significantly change
expression of mouse bFGF protein in the heart ([5]; co-treatment with Dox): significantly increased its expression to a level higher than that observed in naive or vehicle-treated mice
expression of mouse bFGF protein in the heart ([5]; single agent): unchanged
expression of bFGF in tumors ([5]; combination with Dox): further diminished
bFGF mRNA in the tumor ([5]; combined treatment with Dox): suppressed it significantly further
bFGF mRNA in the tumor ([5]; single agent): significantly reduced the bFGF mRNA
expression of bFGF in tumors ([5]; single agent, FIGS. 4A, 4B): decreased significantly
VEGF expression in the heart [6]: elevated
c-Myc protein expression in the hearts ([7]; heart, FIG. 5B): not affected
c-Myc protein expression in tumors ([7]; tumor, FIG. 5A): decreased dramatically
survival of mice when added to Dox treatment ([8]; added to Dox 4 mg/kg ip once a week, day 25, FIG. 3A): 100%
body weight loss when added to Dox treatment ([8]; added to Dox 4 mg/kg, FIG. 3B): significant attenuation of body weight loss
Ki-67 positive (proliferating) cells in tumors ([8]; in combination with Dox, FIG. 3F): reduced the proliferating cells to a level significantly lower than any of the single drug treatments
tumor volume of vehicle-treated group relative to treated group ([8]; in combination with Dox): 3 fold
Ki-67 positive cells in tumors ([8]; single agent vs vehicle, FIGS. 3E, 3F): considerably more Ki-67 positive cells were detected in tumors of the vehicle-treated mice
tumor volume of vehicle-treated group relative to treated group ([8]; single agent): 2 fold
survival of mice until end of experiment (day 25) ([8]; single agent: AN446 25 mg/kg or AN7 50 mg/kg po thrice weekly, Dox 4 mg/kg ip once a week, FIG. 3A): 100%

Structure (SMILES): CC(=O)O[C@H]1C(=O)[C@@]2(C)[C@H]([C@H](OC(=O)c3ccccc3)[C@]3(O)C[C@H](OC(=O)[C@H](O)[C@@H](NC(=O)c4ccccc4)c4ccccc4)C(C)=C1C3(C)C)[C@]1(OC(C)=O)CO[C@@H]1C[C@@H]2O [Paclitaxel, paclitaxel]
expression of TLR4 [9]: paclitaxel-induced increase
expression of MCP-1 [10]: paclitaxel-induced increase
expression of TNF-α [11]: paclitaxel-induced increase
IC50 ([1]; MDA-MB-231, MDA-231, paclitaxel in combination with AN446, read-out: Paclitaxel com IC50): 0.0017 ± 1e-05 µM
IC50 ([1]; MDA-MB-231, MDA-231, paclitaxel in combination with SAHA, read-out: Paclitaxel com IC50): 0.0015 µM
IC50 ([1]; MDA-MB-231, MDA-231, paclitaxel in combination with valproic acid, read-out: Paclitaxel com IC50): 0.0016 ± 1e-05 µM
IC50 ([1]; MDA-MB-231, MDA-231, single agent, read-out: Paclitaxel IC50): 0.0044 ± 0.0002 µM
IC50 ([12]; NCI-N87, paclitaxel in combination with AN446, read-out: Paclitaxel com IC50): 0.0018 ± 0.0002 µM
IC50 ([12]; NCI-N87, single agent, read-out: Paclitaxel IC50): 0.004 µM
IC50 ([2]; paclitaxel in combination with AN446, read-out: Paclitaxel com IC50): 0.0028 ± 0.0001 µM
IC50 ([2]; paclitaxel in combination with SAHA, read-out: Paclitaxel com IC50): 0.0023 ± 1e-05 µM
IC50 ([2]; paclitaxel in combination with valproic acid, read-out: Paclitaxel com IC50): 0.0036 ± 0.0001 µM
IC50 ([2]; single agent, read-out: Paclitaxel IC50): 0.0032 ± 0.0001 µM

Structure (SMILES): C/C=C1\NC(=O)[C@H]2CSSCC/C=C/[C@H](CC(=O)N[C@H](C(C)C)C(=O)N2)OC(=O)[C@H](C(C)C)NC1=O [romidepsin]
IC50 [3]: 0.001 µM

More lines, main results first:

IC50 ([2]; in combination with paclitaxel, read-out: com IC50): 1800 ± 100 µM
IC50 ([2]; single agent, Table 3, read-out: IC50): 4400 ± 300 µM
IC50 [3]: 3000 µM
Structure (SMILES): CCCC(CCC)C(=O)O [Valproic acid, valproic acid]
IC50 ([1]; MDA-MB-231, MDA-231, in combination with paclitaxel, read-out: com IC50): 1600 ± 10 µM
IC50 ([1]; MDA-MB-231, MDA-231, single agent, Table 3, read-out: IC50): 3900 ± 200 µM
CI (combination index with paclitaxel) ([1]; MDA-231): 0.8
CI (combination index with paclitaxel) [2]: 1.1

IC50 ([2]; in combination with Dox, read-out: com IC50): 0.13 µM
Structure (SMILES): O=C(CCCCCCC(=O)Nc1ccccc1)NO [SAHA, suberanilohydroxamic acid]
TLR4 expression in MDA-231 cells [13]: no apparent effect on TLR4 expression

IC50 [3]: 2 µM
Structure (SMILES): Nc1ccccc1NC(=O)c1ccc(CNC(=O)OCc2cccnc2)cc1 [entinostat]
TLR4 expression in MDA-231 cells [13]: no apparent effect on TLR4 expression
